# Test results as given in patent US20230312473A1, “PROCESS FOR THE PREPARATION OF BIHETEROARYL COMPOUNDS AND CRYSTAL FORMS THEREOF” (Genentech, Inc., priority 2020, published 2023).
# Experiments:
# [1] = Solubility of compound I free base in MIBK; type: physicochemical
# Protocol: In one aspect, the dissolution solvent is MIBK. The solubility of compound I free base in MIBK is about 8.2 wt. % at 90° C., about 5.2 wt. % at 80° C., about 4 wt. % at 70° C., about 3 wt. % at 60° C., about 2 wt. % at 50° C., about 1.4 wt. % at 40° C., about 1 wt. % at 30° C., about 0.9 wt. % at 20° C., about 0.6 wt. % at 10° C., about 0.4 wt. % at 0° C., and about 0.2 wt. % at −10° C. In some aspects, a 6.5 wt. % to 7.5 wt. % solution of compound I free base in MIBK is formed at 90° C. Following filtration at about 90° C., the solution may be cooled to about 75° C. following by addition of seed crystals to form a slurry, and optionally held (aged) at that temperature for a period of time, such as from about 0.5 to about 2 hours. The slurry may then be cooled, such as for instance to about −10° C., and aged at that temperature for a period of time, such as from about 2 to about 10 hours. Solid crystallized compound I may be isolated, and washed with chilled MIBK (e.g., at about 0° C. to about 10° C.) and then with chilled alcohol, such as ethanol (e.g., at about 0° C. to about 10° C.). Crystalline compound I may be dried at a temperature of from about 40° C. to about 70° C. (e.g., 60° C.) under vacuum (e.g., about 20 mbar or less) until a constant weight is achieved.
# [2] = Crystallization study: crystalline form by XRPD; type: physicochemical
# Protocol: In Example 14, X-ray powder diffraction (“XRPD”), a sample of compound 1 was prepared in an open quartz glass capillary with a diameter of 0.9 mm (and was not further processed, such as by grinding). A Stoe high-low temperature attachment (working range −50 to 300) with a NiCr/Ni thermocouple for temperature measurement controlled the respective temperature conditions. The measurements were carried out with a rotating capillary and the following parameters. STOE STADI diffractometer; MYTHEN 1K detector; CuKα, 1.5406 Å radiation; Ge monochromator; 40 kV, 40 mA; moving scan; 1800 seconds per step; 2θ=3-42 degrees; 5° C./min ramp rate; and 5° C. temperature step.
# Compound 1 was prepared from crude compound 1 according to the following procedure. Crude compound 1 (46 kg) was dissolved in 1080 kg of isopropyl acetate at 88.6° C. After cooling to 71° C., the solution was passed through a pre-washed and pre-heated charcoal filter. The charcoal filter was rinsed with 400 kg of hot isopropyl acetate. Under reduced pressure, the volume of the combined filtrates was concentrated to a total of 760 to 780 L. The resulting suspension was heated to 88° C. Isopropyl acetate was then added in portions (85 kg in total) to achieve complete dissolution at 88° C. The solution was cooled to 69° C. leading to a suspension which was then cooled to 0° C. within 190 minutes, and stirred at this temperature for 900 minutes. The product was isolated by filtration and rinsed with portions of cold isopropyl acetate (400 kg in total). After drying at […]/10 mbar for about 40 hours, 38.5 kg (approx. 84% of theoretical yield) of crystallized compound 1 was obtained.
# Crystalline compound 1 was evaluated. Crystallization study procedures were done based on the solubility of compound 1 in the solvent under evaluation as follows.
# The results are presented below in Table 10 where: * refers to compound 1 prepared as described above; and ** refers to compound 1 prepared as described above and further incubated at 100% relative humidity at 22° C. for 17 days.
smiles,measurement,setting,value
"Nc1ncc(-c2cc(N3C[C@@H]4C[C@H]3CO4)nc(N3CCC(F)(F)C3)n2)cc1OC(F)F [Compound 1, 5-(6-((1S,4S)-2-oxa-5-azabicyclo[2.2.1]heptan-5-yl)-2-(3,3-difluoropyrrolidin-1-yl)pyrimidin-4-yl)-3-(difluoromethoxy)pyridin-2-amine]",solubility in MIBK,[1]; 0° C.,about 0.4 wt. %
same,solubility in MIBK,[1]; 10° C.,about 0.6 wt. %
same,solubility in MIBK,[1]; 20° C.,about 0.9 wt. %
same,solubility in MIBK,[1]; 30° C.,about 1 wt. %
same,solubility in MIBK,[1]; 40° C.,about 1.4 wt. %
same,solubility in MIBK,[1]; 50° C.,about 2 wt. %
same,solubility in MIBK,[1]; 60° C.,about 3 wt. %
same,solubility in MIBK,[1]; 70° C.,about 4 wt. %
same,solubility in MIBK,[1]; 80° C.,about 5.2 wt. %
same,solubility in MIBK,[1]; 90° C.,about 8.2 wt. %
same,solubility in MIBK,[1]; −10° C.,about 0.2 wt. %
same,Crystalline Form,[2]; * compound 1 as prepared (crystallized from isopropyl acetate),Form A
same,Crystalline Form,[2]; ** as prepared and further incubated at 100% relative humidity at 22° C. for 17 days,Form A
same,Crystalline Form,[2]; crystallization study solvent: 2-methyl THF,Form A
same,Crystalline Form,[2]; crystallization study solvent: 5% water in ethanol,Form A
same,Crystalline Form,[2]; crystallization study solvent: 5% water in isopropanol,Form A
same,Crystalline Form,[2]; crystallization study solvent: 5% water in methanol,Form A
same,Crystalline Form,[2]; crystallization study solvent: 5% water in propanol,Form A
same,Crystalline Form,[2]; crystallization study solvent: 15% water in THF,Form A
same,Crystalline Form,[2]; crystallization study solvent: 15% water in acetone,Form A
same,Crystalline Form,[2]; crystallization study solvent: 15% water in ethanol,Form A
same,Crystalline Form,[2]; crystallization study solvent: 15% water in isopropanol,Form A
same,Crystalline Form,[2]; crystallization study solvent: 15% water in methanol,Form A
same,Crystalline Form,[2]; crystallization study solvent: 15% water in propanol,Form A
same,Crystalline Form,[2]; crystallization study solvent: 20% water in acetonitrile,Form A
same,Crystalline Form,[2]; crystallization study solvent: 50% water in acetonitrile,Form A
same,Crystalline Form,[2]; crystallization study solvent: 50% water in ethanol,Form A
same,Crystalline Form,[2]; crystallization study solvent: 50% water in isopropanol,Form A
same,Crystalline Form,[2]; crystallization study solvent: 50% water in methanol,Form A
same,Crystalline Form,[2]; crystallization study solvent: 50% water in propanol,Form A
same,Crystalline Form,[2]; crystallization study solvent: 80% water in acetonitrile,Form A
same,Crystalline Form,[2]; crystallization study solvent: Acetic acid,Form A
same,Crystalline Form,[2]; crystallization study solvent: Acetone,Form A
same,Crystalline Form,[2]; crystallization study solvent: Acetonitrile,Form A
same,Crystalline Form,[2]; crystallization study solvent: Butanol,Form A
same,Crystalline Form,[2]; crystallization study solvent: Chloroform,Form A
same,Crystalline Form,[2]; crystallization study solvent: DMA,Form A
same,Crystalline Form,[2]; crystallization study solvent: DMF,Form A
same,Crystalline Form,[2]; crystallization study solvent: DMSO,Form A
same,Crystalline Form,[2]; crystallization study solvent: Dichloromethane,Form A
same,Crystalline Form,[2]; crystallization study solvent: Diisopropylamine,Form A
same,Crystalline Form,[2]; crystallization study solvent: Dimethyl carbonate,Form A
same,Crystalline Form,[2]; crystallization study solvent: Dioxane,Form A
same,Crystalline Form,[2]; crystallization study solvent: Ethanol,Form A
same,Crystalline Form,[2]; crystallization study solvent: Ethyl acetate,Form A
same,Crystalline Form,[2]; crystallization study solvent: Isopropanol,Form A
same,Crystalline Form,[2]; crystallization study solvent: Isopropyl acetate,Form A
same,Crystalline Form,[2]; crystallization study solvent: MEK,Form A
same,Crystalline Form,[2]; crystallization study solvent: MIBK,Form A
same,Crystalline Form,[2]; crystallization study solvent: MTBE,Form A
same,Crystalline Form,[2]; crystallization study solvent: Methanol,Form A
same,Crystalline Form,[2]; crystallization study solvent: NMP,Form A
same,Crystalline Form,[2]; crystallization study solvent: Nitromethane,Form A
same,Crystalline Form,[2]; crystallization study solvent: Propanol,Form A
same,Crystalline Form,[2]; crystallization study solvent: THF,Form A
same,Crystalline Form,[2]; crystallization study solvent: Toluene,Form A
same,Crystalline Form,[2]; crystallization study solvent: Water,Form A
same,Crystalline Form,[2]; crystallization study solvent: i-Butanol,Form A
same,Crystalline Form,[2]; crystallization study solvent: n-Heptane,Form A
same,Crystalline Form,[2]; crystallization study solvent: s-butanol,Form A
